Experimental data as given in patent US20200283728A1, “MODIFIED T CELLS AND USES THEREOF” (MUSC FOUNDATION FOR RESEARCH DEVELOPMENT, priority 2017, published 2020).

How the values were obtained:
Type in all cases: cell-based, mouse
[1] = system: ICOS-activated Th17 cells; assay: Cytokine production of ICOS-stimulated TRP-1 Th17 cells expanded with inhibitors (intracellular FACS); conditions: 8 days of expansion, vs un-treated Th17 cells
Method: (§1) Expansion of Th17 cells with Wnt/β-catenin and PI3K inhibitors in vitro: TRP-1 splenocytes were activated with irradiated (10Gy) C57BL/6 splenocytes pulsed with TRP-1 peptide (1 μM) added at a 5:1 ratio in 24-well plates (1 mL media containing 1.5×10^6 cells/well). TRP-1 splenocytes were co-stimulated with soluble ICOS agonist (Clone 398.4A, BioLegend) and polarized toward Th17 phenotype as describe above. For in vitro expansion from day 0 of culture 10 μM Ly294002 (Cayman Chemical) or 10 μM CAL-101 (Selleckchem) and/or 60 μM indomethacin (Sigma-Aldrich) was added. Also dimethylosulfoxide 0.01% (Sigma-Aldrich) was added as a control. Th17 cultures were also supplemented with hrIL-2 (100 IU/mL) and rmIL-23 ([…]; R&D). Medium, including cytokines and inhibitors was refreshed every 2-3 days.
Surface staining of Th17 cells was performed with anti-CD4-APCCy7, anti-Vβ14-FITC (BD Biosciences) anti-CD62L-APC, anti-CD44-PerCPCy5.5, anti-CCR6-PE, anti-CD69-PECy7, anti-CCR7-PE, anti-CD27-PE, anti-CD28-PerCPCy5.5, anti-ICOS-PE and anti-CD25-PECy7/FITC (BioLegend) and viability stain (Invitrogen) on day 8. For all intracellular staining of cytokines (anti-IL-17 PerCPCy5.5, anti-IFN-γ-v450, anti-IL-2-FITC, anti-IL-21-APC, anti-IL-22-PE, anti-TNF-α-FITC; BioLegend) and transcription factors (anti-RORγt-APC, anti-cMaf-PerCPCy5.5, anti-STAT-3-PE, anti-FoxP3-FITC/PE, anti-T-bet-v450; eBiosciences), cells were stimulated for 4-5 h with 50 ng/mL PMA and 750 ng/mL ionomycin (Sigma-Aldrich). Additional antibodies used include: CD127-PECy7 clone A019D5, CD25-APCCy7 clone BC96, CD4-APCCy7 OKT4, CD45RO-APC clone UCHL1, CD62L-FITC clone DREG-56, CD8-PerCPCy5.5 clone SKI, TIM3-PE clone F38-2E2 (biolegend); CCR7-PECy7 clone CCR7, CD8-V450 clone RPA-T8, PD1-FITC clone M1H4, (BD Biosciences). Antibodies used for mouse cell analysis: CD127-PE/V450 clone A7R34, CD25-FITC clone 7D4, CD44-PerCPCy5.5/FITC clone IM7, CD69-PECy7 clone HI.2F3, CD8-PerCPCy5.5 clone 53-6.7, CD8-PECy7 clone YTS156.7.7, PD1-PerCPCy5.5 clone 29F.1A12 V[…]13-PE/APC clone MR12-3/MR12-4 (Biolegend), CD4-APCCy7 clone RM4-5, CD62L-APC clone MEL-14, KLRG1-APC/V450 clone 2F1 (BD). After 1 h, Monensin (BioLegend) was added per manufacturer's instructions. After surface staining, intracellular staining for cytokines and transcription factors was performed using Fixation and Permeabilization buffers (BioLegend) and Foxp3 Staining Buffers (eBioscience), respectively. Flow cytometry acquisition was performed on a FACSVerse or Accuri (BD Bioscience). Data were analyzed with FlowJo software (TreeStar). For experiments with sorted cells, CD8^+Vb13^+ T cells were sorted from pmel-1 cultures using Dynabeads untouched mouse CD8^+ T cell kit (Invitrogen) and a FACSAria cell sorting machine (BD Biosciences).

[2] = system: ICOS-activated Th17 cells; assay: Cytokine secretion of Th17 cells three days after priming (ELISA); conditions: day 3 after priming
Method: as §1, with “TRP-1” left out, “days. Cytokine levels were measured using the mouse IL-17A, INF-γ, IL-2, IL-9, IL-10, IL-21, IL-22, CCL-20, GM-CSF ELISA kits (R&D) following the manufacturer's protocol.” for “days.”

[3] = system: ICOS-stimulated Th17 cells; assay: Growth and survival of ICOS-stimulated Th17 cells expanded with inhibitors; conditions: in vitro expansion, day 7
Method: as §1, with “TRP-1” left out

[4] = system: ICOS activated Th17 cells; assay: Cytokine production of inhibitor-primed Th17 cells after secondary re-stimulation in vitro (ELISA); conditions: vs untreated or CAL-101-treated Th17 cells
Text: FIG. 11: Re-stimulation of ICOS activated Th17 cells in vitro restores their cytokine production after initial inhibition of PI3K/p110δ and Wnt/β-catenin signaling pathways. ELISA analysis of cytokine production 72 hrs after secondary re-stimulation in vitro using splenocytes pulsed with trp-1 peptide (5:1 ratio), PMA/Ionomycin or B16F10 cancer cells of ICOS stimulated Th17 cells expanded with inhibitors as indicated. Data represent mean±SEM of at least three independent experiments.
Cytokine levels were measured using the mouse IL-17A, INF-γ, IL-2, IL-9, IL-10, IL-21, IL-22, CCL-20, GM-CSF ELISA kits (R&D) following the manufacturer's protocol.

[5] = CAL-101 10 μM, Indo 60 μM, Ly294002 10 μM

SMILES: COc1ccc2c(c1)c(CC(=O)O)c(C)n2C(=O)c1ccc(Cl)cc1 [Indo, indomethacin]
- IFN-γ production [1, 5]: did not impact
- IL-17A production [1, 5]: did not impact
- IL-22 production [1]: increased
- TNF-α production [1]: increased
- CCL-20 secretion [2]: decreased
- GM-CSF secretion [2]: no difference
- IFN-γ secretion [2]: decreased
- IL-2 secretion [2]: no difference
- IL-9 secretion [2]: decreased
- IL-10 secretion [2]: no difference
- IL-17A secretion [2]: decreased
- IL-21 secretion [2]: no difference
- Th17 cell growth or survival [3]: did not impair
- IL-2 secretion after peptide re-stimulation [4]: significantly more
